Results from publication PMC10098121, “Amphipathic barbiturates as marine product mimics with cytolytic and immunogenic effects on head and neck squamous cell carcinoma cell lines” (Frontiers in Pharmacology, 2023).

Assays:
UT-SCC-106A = test: High throughput drug screening (CellTiter-Glo, DSS); format: cell-based, human; conditions: for drug sensitivity score (DSS): 72 h, 10-100,000 nM, myogel, non-irradiated; for delta DSS (ΔDSS): DSS irradiated (2 Gy) minus DSS non-irradiated, >5 synergy, <–5 antagonism
Experimental: (§1) The MPMs were screened against a panel of […] different cell lines (HSC-3, UT-SCC-8, UT-SCC-24A, UT-SCC-24B, UT-SCC-42A, UT-SCC-42B and NOF) at the High Throughput Biomedicine Unit (HTB) at the Institute for Molecular Medicine Finland (FIMM). On day 1, black-walled 384-well plates were coated with 5 µl diluted myogel (0.5 mg/ml) per well using an automated reagent dispenser (MultiFlo FX, BioTek, Winooski, VT, United States). On day 2, 500 cells per well were seeded in 20 µl of complete media using the MultiFlo FX (BioTek), and the cells were left to adhere overnight. On day 3, the MPMs, cisplatin, DMSO and Benzethonium chloride were added to the cells using an automatic liquid handler (Echo 550, Labcyte Inc., San Jose, CA, United States). Cisplatin and the MPMs were added to yield five different concentrations in a ten-fold dilution series ranging from 10 to 100,000 nM. Each concentration was tested in triplicate wells. DMSO (0.1%) and benzethonium chloride (100 µM) served as negative and positive control, respectively. Three hours later, some of the plates were irradiated with 2 Gy in a gamma irradiator (OB29/4, STS, Braunschweig, Germany). All plates were taken to the irradiation room to ensure similar handling of the plates. 72 h later, the plates were cooled to room temperature before 25 µl of CellTiter-Glo 2.0 reagent (Promega, Madison, WI, USA) was added to each well using the MultiFlo FX (BioTek). Next, the plates were centrifuged for 5 min at 1,000 rpm before the luminescence signal was measured with the PHERAstar FS HT reader (BMG LABTECH GmbH, Ortenberg, Germany). The raw data was analyzed with the Breeze software (https://breeze.fmm.fi), which normalized the luminescence signal from treated cells against the signal from negative and positive control cells to calculate the percentage of inhibition and generate dose-response curves, which were then used to calculate drug sensitivity scores (DSS). The DSS is a parameter which combines the IC50, the slope of the dose-response curve, and the minimum and maximum responses into a single metric, as previously described ([Yadav et al., 2014]). Quality control was performed by calculation of the Z′-factor, which was >0.7 for all cell lines, indicating high quality of the assay ([Zhang et al., 1999]).

UT-SCC-24B = test: as above; format: cell-based, human; conditions: for drug sensitivity score (DSS): 72 h, 10-100,000 nM, myogel, non-irradiated; for delta DSS (ΔDSS): DSS irradiated (2 Gy) minus DSS non-irradiated, >5 synergy, <–5 antagonism
Experimental: as §1

UT-SCC-8 = test: as above; format: cell-based, human; conditions: for drug sensitivity score (DSS): UT-SCC-8, 72 h, 10-100,000 nM, myogel, non-irradiated; for delta DSS (ΔDSS): UT-SCC-8, DSS irradiated (2 Gy) minus DSS non-irradiated, >5 synergy, <–5 antagonism
Experimental: as §1

HSC-3 = test: as above; format: cell-based, human; conditions: for drug sensitivity score (DSS): HSC-3, 72 h, 10-100,000 nM, myogel, non-irradiated; for delta DSS (ΔDSS): HSC-3, DSS irradiated (2 Gy) minus DSS non-irradiated, >5 synergy, <–5 antagonism
Experimental: as §1

UT-SCC-24A = test: as above; format: cell-based, human; conditions: for drug sensitivity score (DSS): 72 h, 10-100,000 nM, myogel, non-irradiated; for delta DSS (ΔDSS): DSS irradiated (2 Gy) minus DSS non-irradiated, >5 synergy, <–5 antagonism
Experimental: as §1

UT-SCC-42A = test: as above; format: cell-based, human; conditions: for drug sensitivity score (DSS): 72 h, 10-100,000 nM, myogel, non-irradiated; for delta DSS (ΔDSS): DSS irradiated (2 Gy) minus DSS non-irradiated, >5 synergy, <–5 antagonism
Experimental: as §1

UT-SCC-42B = test: as above; format: cell-based, human; conditions: for drug sensitivity score (DSS): 72 h, 10-100,000 nM, myogel, non-irradiated; for delta DSS (ΔDSS): DSS irradiated (2 Gy) minus DSS non-irradiated, >5 synergy, <–5 antagonism
Experimental: as §1

[1] = test system: NOF (normal oral fibroblasts); test: as above; format: cell-based, human; conditions: for drug sensitivity score (DSS): 72 h, 10-100,000 nM, myogel, non-irradiated; for delta DSS (ΔDSS): DSS irradiated (2 Gy) minus DSS non-irradiated, >5 synergy, <–5 antagonism
Experimental: as §1

[2] = test system: Escherichia coli ATCC 25922; test: Bacterial minimum inhibitory concentration (broth microdilution); format: cell-based; conditions: ATCC25922; Escherichia coli ATCC 25922, 48 h, 35 °C, di-TFA salts
Experimental: Method for determination of bacterial minimum inhibitory concentration (MIC) Stock solutions of the water-soluble compounds were prepared by dissolving them in ultrapure water (Milli-Q H2O, Millipore, MA, USA). The less water-soluble compounds were first dissolved in 25 - 50 µL 100% DMSO before further dilution with ultrapure water. The DMSO concentration was always less than 1% in the working concentration of each compound. A modified broth microdilution susceptibility test based on the CLSI M07-A9 protocol, [2] was used to determine minimal inhibitory concentrations (MIC). Briefly, the test compounds were two-fold diluted with ultrapure water in polystyrene 96-well flat-bottom microplates (NUNC, Roskilde, Denmark). The bacterial inoculum was diluted to 2.5 - 3 x 10^4 cells/mL in Mueller-Hinton broth (MHB, Difco Laboratories, USA) and added to the different diluted compounds in a ratio of 1:1. Positive control (ciprofloxacin, Sigma-Aldrich, USA), negative control (bacteria + water), and media control (media + water) were included in each experiment. The microplates were incubated for 48 h at 35 °C in an EnVision microplate reader (PerkinElmer, Waltham, MA, USA). The lowest concentration of compounds that caused no bacterial growth, as determined by optical density (OD600) measurements, was defined as the MIC value. All compounds were tested in 3 technical replicates.
Supplementary Video S1. HSC-3 cells were seeded at 100% confluence and a standard scratch wound migration assay was performed. The cells were imaged every 2 hours for 24 hours. The video

human red blood cells = test: Hemolysis assay; format: cell-based; conditions: for EC50: Homo sapiens, Erythrocyte, 1 h, 37°C, highest concentration tested 500 μM, average of three experiments, read-out: EC50 hemolytic activity against human red blood cells
Experimental: The hemolytic effect of the MPMs was determined using a hemolysis assay as previously described ([Paulsen et al., 2021]). Briefly, hemolysis was determined using a heparinized fraction (10 IU/mL) of freshly drawn blood. The blood collected in ethylenediaminetetraacetic acid-containing test tubes (Vacutest, KIMA, Arzergrande, Italy) was used for the determination of the hematocrit (hct). The heparinized blood was washed 3 × with pre-warmed phosphate-buffered saline (PBS) and adjusted to a final hct of 4%. MPMs in DMSO (50 mM) were added to a 96-well polypropylene V-bottom plate (NUNC, Fisher Scientific, Oslo, Norway) and serially diluted. The test concentration range was 4–500 μM with DMSO contents ≤1%. A solution of 1% triton X-100 was used as a positive control for 100% hemolysis. As a negative control, a solution of 1% DMSO in PBS was included. Red blood cells (1% v/v final concentration) were added to the well plate and incubated at 37°C and 800 rpm for 1 h. After centrifugation (5 min, 3000 g), 100 μL from each well was transferred to a 96-well flat-bottomed microtiter plate, and absorbance was measured at 545 nm with a microplate reader (VersaMaxTM, Molecular Devices, Sunnyvale, CA, United States). The percentage of hemolysis was calculated as the ratio of the absorbance in the MPM treated and surfactant-treated samples, corrected for the PBS background. Three independent experiments were performed, and EC50 values are presented as averages.

## N.N.[Cl][Pt][Cl] [Cisplatin, cisplatin, reference compound]
UT-SCC-106A
  drug sensitivity score (DSS): 9
  delta DSS (ΔDSS): 0,3
UT-SCC-24B
  drug sensitivity score (DSS): 11,6
  delta DSS (ΔDSS): 0,7
UT-SCC-8
  drug sensitivity score (DSS): 16,8
  delta DSS (ΔDSS): -0,8
HSC-3
  drug sensitivity score (DSS): 15,6
  delta DSS (ΔDSS): -0,8
UT-SCC-24A
  drug sensitivity score (DSS): 8,9
  delta DSS (ΔDSS): -0,9
UT-SCC-42A
  drug sensitivity score (DSS): 7,1
  delta DSS (ΔDSS): -0,1
UT-SCC-42B
  drug sensitivity score (DSS): 7,7
  delta DSS (ΔDSS): -0,6
[1]
  drug sensitivity score (DSS): 9,6
  delta DSS (ΔDSS): -1,9

## NCCN1C(=O)N(CCN)C(=O)C(CCCc2ccccc2)(CCCc2ccccc2)C1=O [MPM-2:0]
UT-SCC-106A
  drug sensitivity score (DSS): 18
  delta DSS (ΔDSS): -0,5
UT-SCC-24B
  drug sensitivity score (DSS): 18,3
  delta DSS (ΔDSS): -0,1
UT-SCC-8
  drug sensitivity score (DSS): 19,2
  delta DSS (ΔDSS): 0,6
HSC-3
  drug sensitivity score (DSS): 19
  delta DSS (ΔDSS): -0,7
UT-SCC-24A
  drug sensitivity score (DSS): 18,7
  delta DSS (ΔDSS): -0,7
UT-SCC-42A
  drug sensitivity score (DSS): 19
  delta DSS (ΔDSS): -0,7
UT-SCC-42B
  drug sensitivity score (DSS): 18,7
  delta DSS (ΔDSS): -0,1
[1]
  drug sensitivity score (DSS): 18,3
  delta DSS (ΔDSS): -0,7
[2]
  MIC: 16 µg/mL
Human red blood cells
  EC50: 379 µM

## CN(C)CCCN1C(=O)N(CCCN(C)C)C(=O)C(CCCc2ccccc2)(CCCc2ccccc2)C1=O [MPM-3:2]
UT-SCC-106A
  drug sensitivity score (DSS): 18,6
  delta DSS (ΔDSS): -0,2
UT-SCC-24B
  drug sensitivity score (DSS): 18,4
  delta DSS (ΔDSS): 0,1
UT-SCC-8
  drug sensitivity score (DSS): 17,8
  delta DSS (ΔDSS): 0,1
HSC-3
  drug sensitivity score (DSS): 17,9
  delta DSS (ΔDSS): -0,2
UT-SCC-24A
  drug sensitivity score (DSS): 17,9
  delta DSS (ΔDSS): -0,2
UT-SCC-42A
  drug sensitivity score (DSS): 16
  delta DSS (ΔDSS): 0,6
UT-SCC-42B
  drug sensitivity score (DSS): 15,7
  delta DSS (ΔDSS): 0,3
[1]
  drug sensitivity score (DSS): 19,3
  delta DSS (ΔDSS): -1,6
[2]
  MIC: 32 µg/mL
Human red blood cells
  EC50: > 500 µM

## CN(C)CCCCN1C(=O)N(CCCCN(C)C)C(=O)C(CCCc2ccccc2)(CCCc2ccccc2)C1=O [MPM-4:2]
UT-SCC-106A
  drug sensitivity score (DSS): 19,5
  delta DSS (ΔDSS): -0,2
UT-SCC-24B
  drug sensitivity score (DSS): 18,9
  delta DSS (ΔDSS): -0,5
UT-SCC-8
  drug sensitivity score (DSS): 18,1
  delta DSS (ΔDSS): 0,5
HSC-3
  drug sensitivity score (DSS): 18,2
  delta DSS (ΔDSS): 0,3
UT-SCC-24A
  drug sensitivity score (DSS): 18,4
  delta DSS (ΔDSS): -0,6
UT-SCC-42A
  drug sensitivity score (DSS): 17
  delta DSS (ΔDSS): 0,4
UT-SCC-42B
  drug sensitivity score (DSS): 16,6
  delta DSS (ΔDSS): -0,4
[1]
  drug sensitivity score (DSS): 22,6
  delta DSS (ΔDSS): 1,2
[2]
  MIC: 32 µg/mL
Human red blood cells
  EC50: > 500 µM

## NCCCCCCN1C(=O)N(CCCCCCN)C(=O)C(CCCc2ccccc2)(CCCc2ccccc2)C1=O [MPM-6:0]
UT-SCC-106A
  drug sensitivity score (DSS): 17,9
  delta DSS (ΔDSS): -0,4
UT-SCC-24B
  drug sensitivity score (DSS): 18,3
  delta DSS (ΔDSS): 0,1
UT-SCC-8
  drug sensitivity score (DSS): 19,5
  delta DSS (ΔDSS): -0,8
HSC-3
  drug sensitivity score (DSS): 17,8
  delta DSS (ΔDSS): 0,7
UT-SCC-24A
  drug sensitivity score (DSS): 18,6
  delta DSS (ΔDSS): -0,2
UT-SCC-42A
  drug sensitivity score (DSS): 17,9
  delta DSS (ΔDSS): 0,3
UT-SCC-42B
  drug sensitivity score (DSS): 18,4
  delta DSS (ΔDSS): -0,5
[1]
  drug sensitivity score (DSS): 18
  delta DSS (ΔDSS): -0,3
[2]
  MIC: 8 µg/mL
Human red blood cells
  EC50: 92 µM
Human red blood cells; test range 4–500 μM
  hemolytic activity against red blood cells (in words): the most hemolytic compound
